These results are taken from patent US4318917A, “Antiinflammatory 2,3-diaryl-5-[2,2,2-trifluoro-1-(trifluoromethyl]ethyl-1H-pyrroles” (E. I. Du Pont de Nemours and Company, priority 1981, dated 1982).

This assay deals with adjuvant-induced arthritis in rats. The assay can be described thus: Established Adjuvant-Induced Arthritis in Rats (paw volume). The assay is classed as in vivo, rat (Charles River Lewis male rats). The note with it: oral gavage, 7 daily doses; for ED50: Rattus norvegicus, uninjected left hind paw, established adjuvant arthritis, read-out: Adjuvant Arthritis ED50 (ED50% decrease from control paw volume). The method, then: A procedure for detecting and comparing the antiinflammatory activity of compounds in this series and standard drugs for which there is a good correlation with human efficacy is the adjuvant-induced arthritis test in rats.
The test procedure employed for determining antiinflammatory activity is described below.
Established Adjuvant-Induced Arthritis in Rats
Charles River Lewis male rats (130-150 grams) are injected subcutaneously in plantar area of the right hind paw with 0.1 ml of adjuvant (Difco heat-killed, lyophilized Mycobacterium butyricum suspended in mineral oil 5 mg/ml). 20 Non-arthritic controls are injected with mineral oil. The animals are held for 2 weeks to allow development of arthritis. Paw volumes (uninjected, left hind paw) are measured and the adjuvant injected rats are culled and distributed to treatment groups of 10 of equal disease severity. Non-arthritic controls are distributed to 2 groups of 10. The rats are given oral doses of compound or PVA-Acacia (Polyvinyl Alcohol 1%, Gum Acacia, U.S.P. 5%, Methylparaben 0.5%) (10 ml/kg) by gavage on that day and on the 6 following days. One day after the last dose the paw volumes (uninjected, left hind paw) are measured using a Ugo Basile Volume Differential Meter Model 7101. [formula]
% Decrease from Control Mean Paw Volume.
Dose-response regression lines of the % decrease are plotted on semi-log paper by visual fit and the ED50% decrease from control paw volume is determined by inspection.

One may read the ED50 as the dose at which the effect has come halfway, by size or by number of responders.

Take `FC(F)(F)C(c1cc(-c2ccc(Cl)cc2)c(-c2ccc(Cl)cc2)[nH]1)C(F)(F)F` [Example 3]: the ED50 came out at 15 mg/kg. For `Fc1ccc(-c2cc(C(C(F)(F)F)C(F)(F)F)[nH]c2-c2cccnc2)cc1` [Example 5], the “percent reduction in paw volume at the indicated dose” value (at 5 mg/kg) is reported as 0%. On to `Fc1ccc(-c2cc(C(C(F)(F)F)C(F)(F)F)[nH]c2-c2ccc(F)cc2)cc1` [Example 2, 2,3-Bis(4-fluorophenyl)-5-[2,2,2-trifluoro-1-(trifluoromethyl)ethyl]-1H-pyrrole], for which the ED50 is 4 mg/kg. For `FC(F)(F)C(c1cc(-c2ccccc2)c(-c2ccccc2)[nH]1)C(F)(F)F` [Example 1, 2,3-Diphenyl-5-[2,2,2-trifluoro-1-(trifluoromethyl)-ethyl]-1H-pyrrole], the ED50 is 11 mg/kg.

Consider `Fc1ccc(-c2cc(C(C(F)(F)F)C(F)(F)F)[nH]c2-c2ccc(Br)cc2)cc1` [Example 4], for which the ED50 stood at 3.9 mg/kg. Regarding `CSc1ccc(-c2[nH]c(C(C(F)(F)F)C(F)(F)F)cc2-c2ccc(F)cc2)cc1` [Example 6], the ED50 was 2.5 mg/kg. Take `Fc1ccc(C2=CC(=C(C(F)(F)F)C(F)(F)F)N=C2c2ccc(Br)cc2)cc1` [Example 18, 5-(4-bromophenyl)-4-(4-fluorophenyl)-2-[2,2,2-trifluoro-1-(trifluoromethyl)ethylidene]-2H-pyrrole]: under “at 25 mg/kg”, the “percent reduction in paw volume at the indicated dose” value is 16%. Turning to `Fc1ccc(C2=CC(=C(C(F)(F)F)C(F)(F)F)N=C2c2ccc(F)cc2)cc1` [Example 17, 4,5-Bis(4-fluorophenyl)-2-[2,2,2-trifluoro-1-(trifluoromethyl)ethylidene]-2H-pyrrole], the ED50 was 33 mg/kg.
